The source made the active and inactive calls. No cut-off for these calls is given here.
These compounds were tested on L1210 (assay: Antitumor activity was evaluated in vitro on a L1210 tumor cell line; IA means inactive). Conditions: Mus musculus.
Format: functional, cell-based
`CSC1=Nc2c(nn(C)c2C)C(=O)N2CCC[C@@H]12` was tested, and the Activity was “inactive”.
With `Cc1c2c(nn1C)C(=O)N1CCC[C@H]1CN2` the Activity was “inactive”.
For `Cc1nn(C)c2c1NC[C@@H]1CCCN1C2=O`, the Activity was “inactive”.
With `CSC1=Nc2c(C)nn(C)c2C(=O)N2CCC[C@@H]12` the Activity was “inactive”.

Each compound was assayed on L1210 (assay: Antitumor activity was evaluated in vitro on a L1210 tumor cell line). Conditions: Mus musculus.
Format: functional, cell-based
With `Cc1nn(C)c2c1N=C[C@@H]1CCCN1C2=O` the IC50 was 22.4 µM.
`Cc1c2c(nn1C)C(=O)N1CCC[C@H]1C=N2` gave an IC50 of 8.84 µM.
